The source of these data is patent US20160158309A1, “EXERCISE FUNCTION ENHANCER” (KOHJIN LIFE SCIENCES CO., LTD., priority 2014, published 2016).

Assay [1] in a line: Muscle tissue pH after treadmill exercise in mice. The format is in vivo, ICR mice. As to conditions: exercise group vs control exercise group; oral once a day for two weeks, 2.0% solution 5 μl/g body weight; treadmill 30 minutes at 25 m/min; tibialis anterior and gastrocnemis muscle.
Description: After anesthetic, intermuscular pH of the tibialis anterior muscle and the gastrocnemis muscle was measured using a micro-glass electrode (CMN-141, Chemical Instruments).
The experiment was conducted using 7-week-old male ICR mice (Shimizu Laboratory Supplies). After one week of preliminary care, the mice were separated into two groups based on body weight: a glutathione group (n=21) and a control group (n=21). Glutathione (KOHJIN Life Sciences Co., Ltd.) was prepared in a 2.0% solution and was administered orally once a day for two weeks to the glutathione group at a dose of 5 μl/g of body weight. The same amount of distilled water was administered orally to the control group for the same period of time. […] On the final day, the groups were further divided into a control sedentary group (n=13), a control exercise group (n=8), a glutathione sedentary group (n=13), and a glutathione exercise group (n=8). The exercise groups were given the task of running on a treadmill, after which all groups were dissected.
The exercise task employed a treadmill (MK680, Muromachi Kikai). On the day of the exercise task, the sedentary groups were dissected without performing the exercise task, while the exercise groups were given the task of running on a treadmill for 30 minutes at a speed of 25 m/min, then were dissected immediately after completing the exercise task.
All of the data was plotted with the mean value±standard error. After performing a two-way analysis of variance in comparing the four groups, a multiple comparison test (Bonferroni) was performed. Student's t-distribution test was performed when comparing two groups. Level of significance was defined at 5%.
In another assay the test system is PGC-1α. The assay can be described thus: PGC-1α amount in soleus muscle by western blot. It is filed as in vivo, ICR mice. As to conditions: treated vs control groups; oral once a day for two weeks, 2.0% solution 5 μl/g body weight; sedentary group soleus muscle. (A western blot detects proteins with antibodies after separation by electrophoresis.)

Entries after “also recorded” stand apart in the source; their conditions may differ.

Description for PGC-1α: An amount of PGC-1α in the muscles was measured using a western blot test. Soleus muscle of a sedentary group was homogenized and protein concentration was measured using the BCA method (BCA™ Protein Assay Kit, Thermo [sequence]). The prepared protein sample was poured into 10% gel (Wako), was separated by electrophoresis, and was transferred to a membrane using a transfer device (iBlot, Invitrogen). After 30 minutes of blocking (EzBlokChemi, ATTO CORPORATION), the sample was cleaned three times for five minutes each in Tris buffered saline-(BIO-RAD Laboratories) Tween 20 (Wako) (TBST), and was reacted with a primary antibody using an anti-PGC-1α antibody (CHEMICON International) for 60 minutes at room temperature. The sample was then cleaned three times for five minutes each in TBST and was reacted with a secondary antibody using anti-rabbit antibody (GE Healthcare) for 60 minutes at room temperature. The sample was then cleaned three times for five minutes each in TBST and was reacted with a coloring agent (ECL plus, GE Healthcare) for four minutes. Using an image analysis device (ImageQuant LAS 4000, GE Healthcare), bands were detected and converted to numerical values. Thereafter, a relative ratio with respect to a control set was calculated.
The experiment was conducted using 7-week-old male ICR mice (Shimizu Laboratory Supplies). After one week of preliminary care, the mice were separated into two groups based on body weight: a glutathione group (n=21) and a control group (n=21). […] The same amount of distilled water was administered orally to the control group for the same period of time. A twelve-hour light/dark cycle was maintained in the enclosure and the mice were able to freely take food and water from a plastic gauge. On the final day, the groups were further divided into a control sedentary group (n=13), a control exercise group (n=8), a glutathione sedentary group (n=13), and a glutathione exercise group (n=8). The exercise groups were given the task of running on a treadmill, after which all groups were dissected. […]

As to `N[C@@H](CCC(=O)N[C@@H](CS)C(=O)NCC(=O)O)C(=O)O` [glutathione, γ-L-Glu-L-Cys-Gly], in assay [1], the “Muscle tissue pH” value is “significantly higher value; also recorded: no reduction in muscle tissue pH was observed”. The “PGC-1α expression in the soleus muscles (relative ratio to control)” value in the assay on PGC-1α was “significantly higher value; also recorded: an increase in PGC-1α expression”.

`O=C1O[C@H]([C@@H](O)CO)C(O)=C1O` [vitamin C]: in assay [1], the “Muscle tissue pH” value is reported as “not observed”. Further, in the assay on PGC-1α, the “PGC-1α expression in the soleus muscles (relative ratio to control)” value was “not observed”.
